# Experimental data published in patent US20060088545A1, “Use of inhibitors of the protease of the human immunodeficiency virus (hiv) to block cell migration and/or invasion, tissue infiltration and oedema for the therary of diseases associated therewith” (priority 2001, published 2006).
# Entries after “also recorded” stand apart in the source; their conditions may differ.
# Experiments:
# [1] = tested on: endothelial/lung carcinoma hybrid (Ea-hy 926) cells; assay: Invasion assay of Ea-hy 926 cells in response to bFGF; format: cell-based, human; conditions: 1 μM
# Protocol: The assays have been performed essentially as described in key to FIG. 1. No growth factors were added to EA-hy 926 cells since they produce factors which mediates cell growth in autocrine fashion (Edgell et al., 1983, Albini et al., PNAS 1995, Albini et al., Nat Med 1996). […] The assays have been performed essentially as described in legend to FIG. 3. Average and variation range of two independent experiments each performed in duplicate are shown.
# [2] = tested on: angioproliferative KS-like lesions induced by KS cells; assay: KS-like lesions induced by inoculation of KS cells in nude mice (drug pre-treatment); format: in vivo; conditions: KS cells 3×10^6; treatment starting 2 days before cell inoculation
# Excerpt: At the time of sacrifice, the sites of inoculation were examined to check for the presence of macroscopic angioproliferative lesions as described in the key to FIG. 12 and Table 5.
# These angioproliferative lesions are transient, of murine origin and are developed in response to cytokines, such as bFGF and VEGF, IL-1, IL-6 and others, released by the KS cells (Ensoli et al., 1989; Ensoli et al., 1994a; Ensoli et al., 1994b; Fiorelli et al., 1995; Samaniego et al., 1995; Samaniego et al., 1997; Sgadari et al., 2000). In fact, at least in initial phase, KS is a reactive angioproliferative diseases and not a true neoplasm (Ensoli and Sturzl, 1998).
# At the time of sacrifice, the sites of inoculation were examined to check for the presence of macroscopic angioproliferative KS-like lesions as described in the key to Table 1. Here are listed the number (No.) of mice that developed lesions with respect to the number (No.) of mice inoculated, and the percentage (%) of mice that developed lesions.
# [3] = tested on: lung carcinoma (A549) cells; assay: Lesions induced by A549 cells in nude mice; format: in vivo; conditions: 5×10^6 cells/site; daily treatment
# Protocol: The treatment with HIV-PI or saline solution continued until sacrifice. The size of the lesions present at the injection site was evaluated daily by caliper measurement. External lesion area was then calculated as the product of the two major lesion diameters. The mean size (cm^2) of the lesions present at the injection site is shown.
# To determine whether HIV-PI could inhibit the growth of malignant solid and lymphoid tumours, nude mice were inoculated with hepato-carcinoma cells (SK-Hep-1), lung carcinoma cells (A549), breast adeno-carcinoma cells (MDA-MB-468), myelo-monocytic leukaemia cells (U937), and T lymhocytic leukaemia cells (Jurkat).
# bFGF = bFGF production by KS cells (ELISA); format: cell-based, human; conditions: 0.1, 1 and 10 μM; 5 days + 24 hours
# Protocol: (§1) After 24 hours of incubation, the supernatants of the cultures were tested by ELISA (R & D Systems, Minneapolis, Minn., USA) to determine the quantity of IL-6 present in the medium. The quantity of IL-6 is expressed in pg/ml of supernatant. The same tests were carried out for bFGF, VEGF, IL-1α and IL-1β by means of commercial ELISA kits.
# (§2) KS cells secrete cytokines with an inflammatory, oedemigenic, angiogenic and proliferative activity with autocrine and paracrine effects (Ensoli and Stürzl, 1998). These factors mediate all the processes required for KS-like lesions formation (angiogenesis, cellular proliferation and invasion, inflammatory Infiltration, oedema) and vascular permeability and oedema induced by KS cells in nude mice. […] The quantity of bFGF, VEGF, IL-1 and IL-6 was dosed with immuno-enzymatic trials in the supernatants of the KS cells after 24 hours of culture in the absence of serum and in the continuous presence of the two HIV-PI (ELISA). […] Furthermore IL-6 plays a key role in the multicentric Cstleman's diseases and in the growth of lymphomas (Tosato et al., 1993; Peterson and Frizzera, 1993; Asou et al., 1998; Ramsay et al., 1994), another type of tumour whose incidence is reduced in patients treated with HIV-PI (International Collaboration on HIV and Cancer 2000).
# KS cells [4] = assay: KS cell proliferation (trypan blue dye exclusion); format: cell-based, human; conditions: 7 days
# IL-6 = IL-6 production by KS cells (ELISA); format: cell-based, human; conditions: 0.1, 1 and 10 μM, 5 days + 24 hours
# Protocol: as §1, §2
# VEGF = VEGF production by KS cells (ELISA); format: cell-based, human; conditions: 0.1, 1 and 10 μM; 5 days + 24 hours
# Protocol: as §1, §2
# [5] = tested on: lesions induced by bFGF and VEGF combined; assay: Angiogenic KS-like lesions induced by bFGF and VEGF combined in nude mice; format: in vivo; conditions: bFGF 0.1 μg + VEGF 1 μg
# Protocol: Since VEGF co-operates synergistically with bFGF in inducing angiogenesis and KS-lesion formation, mice (6 animals/group) were also inoculated with sub-optimal amounts of bFGF (0.1 μg) and VEGF (1 μg) combined, as previously performed to observe their synergistic effect (Samaniego et al 1998), and treated with HIV-PI as indicated above.
# At sacrifice the sites of injection were examined for the presence of macroscopic angioproliferative lesions and tissue stained by H & E and analysed microscopically. Here are listed the number (No.) of mice that developed lesions with respect to the number (No.) of mice inoculated, and the percentage (%) of mice that developed lesions.
# [6] = tested on: myelo-monocytic leukaemia (U937) cells; assay: Invasion assay of U937 cells in response to bFGF; format: cell-based, human; conditions: 1 or 10 μM
# Protocol: Shown is the result of a representative invasion assay performed on the myelo-monocytic leukaemia cells U937. […] The invasion assays were performed in the Boyden chamber. Polycarbonate filters (5 μM pores; Nucleoprobe, Cabin John, Md.) were coated first with collagen IV and then with Matrigel (Collaborative Biomedical Products) as described previously (Barillari et al., 1999b). […] Human recombinant bFGF (50 ng/ml) was placed in the lower compartment as chemoattractant. […] Louis, Mo.). Ten random filter fields were counted by light microscopy as described previously (Barillari et al., 1999b). Assays were repeated two times.
# KS cells [7] = assay: KS cell migration, Boyden chamber, bFGF chemo-attractant; format: cell-based, human; conditions: 0.01 μM-1 μM, 5 days
# Protocol: In contrast, both drugs inhibited KS cell capability of invading a matrigel substrate in a dose-dependent manner. In particular, both HIV-PI inhibit the invasion of KS cells by 30-40% (p<0.05) (Table 4 and FIG. 13).
# Migration and invasion assays were carried out essentially as detailed in the key to FIGS. 2 and 3.
# smooth muscle cells = assay: Cell growth assay of smooth muscle cells in response to bFGF; format: cell-based, human
# Excerpt: Assays have been essentially performed as described in key to FIGS. 1 and 3. […] Data of duplicate experiments (mean) are shown.
# [8] = tested on: lesions promoted by bFGF and HIV-1 Tat combined; assay: KS-like lesions promoted by bFGF and HIV-1 Tat combined in nude mice; format: in vivo; conditions: bFGF 1 μg + Tat 10 μg
# Excerpt: Here are listed the number (N.) of mice that developed lesions with respect to the number (N.) of mice inoculated, and the percentage (%) of mice that developed lesions.
SMILES,invasion in response to bFGF [1],No. of mice with macroscopic lesions/No. of inoculated mice [2],mice with macroscopic lesions (%) [2] [%],development of lesions (lesion size) [3],production of bFGF by KS cells (bFGF),"KS cell proliferation (viable cells, trypan blue) (KS cells [4])",production of IL-6 by KS cells (IL-6),production of VEGF by KS cells (VEGF),No. of mice developing lesions/No. of mice [5],mice developing lesions (%) [5] [%],invasive capacity in response to bFGF [6],migration of KS cells (KS cells [7]),proliferation in response to bFGF (smooth muscle cells),No. of macroscopic vascular lesions/No. of mice injected [8],mice that developed lesions (%) [8] [%],production of IL-6 by KS cells (IL-6; listed as indinavir)
"CC(C)(C)NC(=O)[C@@H]1C[C@@H]2CCCC[C@@H]2CN1C[C@@H](O)[C@H](Cc1ccccc1)NC(=O)[C@H](CC(N)=O)NC(=O)c1ccc2ccccc2n1 [Saquinavir, saquinavir]",inhibit,4/16,25,inhibit,reduced,no effect,reduced; also recorded: inhibited,reduced,1/6,17,inhibit,neither indinavir nor saquinavir had any effect,do not interfere,2/10,20,–
"CC(C)(C)NC(=O)[C@@H]1CN(Cc2cccnc2)CCN1C[C@@H](O)C[C@@H](Cc1ccccc1)C(=O)N[C@H]1c2ccccc2C[C@H]1O [Indinavir, indinavir]",inhibit,7/16,43,inhibit,reduced,no effect,inhibited,reduced,2/6,33,inhibit,neither indinavir nor saquinavir had any effect,do not interfere,5/10,50,reduced
